# Reference: ChEMBL document CHEMBL1201862, “PubChem BioAssay data set” (2004)
# Activity calls are given as the source filed them.
# Key:
# [1] = target: T1, Ubiquitin-conjugating enzyme E2 N (Homo sapiens, UniProt P61088); format: functional
# T1 sequence (P61088 whole entry): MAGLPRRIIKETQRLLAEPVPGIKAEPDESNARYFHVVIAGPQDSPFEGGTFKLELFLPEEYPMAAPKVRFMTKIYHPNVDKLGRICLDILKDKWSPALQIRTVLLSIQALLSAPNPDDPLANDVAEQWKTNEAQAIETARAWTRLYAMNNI
# Bcl-2-related protein A1 = target: T2, Bcl-2-related protein A1 (Mus musculus, UniProt Q07440); format: functional;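 also: confirmatory dose–response counterscreen on Bfl-1, used to check hits from a UBC13 polyubiquitin inhibitor campaign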
# T2 sequence (Q07440 whole entry): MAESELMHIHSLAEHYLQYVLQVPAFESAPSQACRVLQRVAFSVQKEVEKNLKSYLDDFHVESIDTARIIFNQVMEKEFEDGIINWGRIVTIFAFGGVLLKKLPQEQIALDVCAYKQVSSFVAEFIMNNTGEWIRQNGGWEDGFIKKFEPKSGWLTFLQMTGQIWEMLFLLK
# [2] = target: T1, Ubiquitin-conjugating enzyme E2 N; format: functional; remark: listed apart in the source
# Beta-galactosidase = Beta-galactosidase (Escherichia coli, UniProt Q8VNN2); assay: beta-galactosidase enzyme inhibitors and activators, dose response, artefact control for CCR6 antagonist project, biochemical, E. coli enzyme, set 3 (AID 504712); format: functional
# Beta-galactosidase, sequence (Q8VNN2 whole entry): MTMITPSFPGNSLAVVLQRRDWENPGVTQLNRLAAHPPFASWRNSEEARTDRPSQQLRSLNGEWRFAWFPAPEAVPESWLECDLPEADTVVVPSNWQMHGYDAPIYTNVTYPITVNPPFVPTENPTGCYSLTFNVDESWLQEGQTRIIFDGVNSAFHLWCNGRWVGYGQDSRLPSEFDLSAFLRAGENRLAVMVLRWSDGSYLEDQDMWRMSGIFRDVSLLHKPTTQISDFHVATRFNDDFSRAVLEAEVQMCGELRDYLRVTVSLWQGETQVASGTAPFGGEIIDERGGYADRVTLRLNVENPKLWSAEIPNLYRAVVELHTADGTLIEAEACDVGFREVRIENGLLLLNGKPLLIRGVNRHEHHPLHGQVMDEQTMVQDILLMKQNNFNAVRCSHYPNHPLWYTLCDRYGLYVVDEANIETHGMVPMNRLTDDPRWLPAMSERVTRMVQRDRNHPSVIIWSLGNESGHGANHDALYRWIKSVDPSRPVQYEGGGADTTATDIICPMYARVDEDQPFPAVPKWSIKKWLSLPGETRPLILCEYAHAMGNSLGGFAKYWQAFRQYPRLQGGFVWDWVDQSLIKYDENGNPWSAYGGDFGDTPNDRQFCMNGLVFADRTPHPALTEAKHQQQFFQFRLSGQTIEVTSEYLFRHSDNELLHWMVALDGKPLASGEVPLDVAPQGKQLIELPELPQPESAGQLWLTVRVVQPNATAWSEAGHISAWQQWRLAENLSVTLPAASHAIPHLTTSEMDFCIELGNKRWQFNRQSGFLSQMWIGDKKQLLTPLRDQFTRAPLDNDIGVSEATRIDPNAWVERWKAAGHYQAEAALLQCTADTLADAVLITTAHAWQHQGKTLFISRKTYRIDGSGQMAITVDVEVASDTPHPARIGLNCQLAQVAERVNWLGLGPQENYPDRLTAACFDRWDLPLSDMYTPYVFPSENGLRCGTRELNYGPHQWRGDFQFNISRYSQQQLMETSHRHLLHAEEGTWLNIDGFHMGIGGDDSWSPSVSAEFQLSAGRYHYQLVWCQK
# [3] = target: T3, DNA dC->dU-editing enzyme APOBEC-3A (Homo sapiens, UniProt P31941); assay: SAR analysis of small molecule inhibitors of APOBEC3A DNA Deaminase via a fluorescence-based single-stranded DNA deaminase assay - Set 2.; format: functional; conditions: read-out: IC50_Mean
# T3 sequence (P31941 whole entry): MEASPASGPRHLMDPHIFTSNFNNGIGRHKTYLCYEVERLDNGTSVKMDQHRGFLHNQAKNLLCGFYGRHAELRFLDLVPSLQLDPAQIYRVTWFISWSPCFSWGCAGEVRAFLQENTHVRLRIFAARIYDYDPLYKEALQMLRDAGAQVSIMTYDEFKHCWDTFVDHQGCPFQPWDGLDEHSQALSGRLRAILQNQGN
# [4] = target: T4, Eukaryotic translation initiation factor 4H (Homo sapiens, UniProt Q15056); assay: human eIF4H binding inhibitors, primary screen, translation initiation inhibitor project, biochemical, uHTS, fluorescence polarization (AID 2012)
# [5] = target: T4, Eukaryotic translation initiation factor 4H; assay: eIF4H inhibition in translation initiation, SAR follow-up (AID 435011); format: functional
# [6] = target: T5, DNA dC->dU-editing enzyme APOBEC-3G (Homo sapiens, UniProt Q9HC16); assay: SAR analysis of small molecule inhibitors of APOBEC3G DNA Deaminase via a fluorescence-based single-stranded DNA deaminase assay - Set 2.; format: functional; conditions: read-out: IC50_Mean
# T5 sequence (Q9HC16 whole entry): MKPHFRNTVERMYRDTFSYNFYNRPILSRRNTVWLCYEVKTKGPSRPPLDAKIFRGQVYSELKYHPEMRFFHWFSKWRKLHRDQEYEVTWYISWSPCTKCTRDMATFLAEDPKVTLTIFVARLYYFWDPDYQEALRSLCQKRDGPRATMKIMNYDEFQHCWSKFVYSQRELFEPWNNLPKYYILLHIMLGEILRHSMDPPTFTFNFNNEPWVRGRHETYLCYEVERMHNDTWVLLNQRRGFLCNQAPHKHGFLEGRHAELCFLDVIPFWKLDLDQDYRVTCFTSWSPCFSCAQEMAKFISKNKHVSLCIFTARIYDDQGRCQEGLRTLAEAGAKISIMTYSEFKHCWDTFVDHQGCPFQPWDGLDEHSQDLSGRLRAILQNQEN
# [7] = target: T3, DNA dC->dU-editing enzyme APOBEC-3A; assay: SAR analysis of small molecule inhibitors of APOBEC3A DNA Deaminase via a fluorescence-based single-stranded DNA deaminase assay.; format: functional; conditions: read-out: IC50_Mean
# [8] = target: T5, DNA dC->dU-editing enzyme APOBEC-3G; format: functional
# [9] = target: T6, Polyadenylate-binding protein 1 (Homo sapiens, UniProt P11940); assay: PABP inhibition in translation initiation, SAR follow-up (AID 435018); format: functional
# T6 sequence (P11940 whole entry): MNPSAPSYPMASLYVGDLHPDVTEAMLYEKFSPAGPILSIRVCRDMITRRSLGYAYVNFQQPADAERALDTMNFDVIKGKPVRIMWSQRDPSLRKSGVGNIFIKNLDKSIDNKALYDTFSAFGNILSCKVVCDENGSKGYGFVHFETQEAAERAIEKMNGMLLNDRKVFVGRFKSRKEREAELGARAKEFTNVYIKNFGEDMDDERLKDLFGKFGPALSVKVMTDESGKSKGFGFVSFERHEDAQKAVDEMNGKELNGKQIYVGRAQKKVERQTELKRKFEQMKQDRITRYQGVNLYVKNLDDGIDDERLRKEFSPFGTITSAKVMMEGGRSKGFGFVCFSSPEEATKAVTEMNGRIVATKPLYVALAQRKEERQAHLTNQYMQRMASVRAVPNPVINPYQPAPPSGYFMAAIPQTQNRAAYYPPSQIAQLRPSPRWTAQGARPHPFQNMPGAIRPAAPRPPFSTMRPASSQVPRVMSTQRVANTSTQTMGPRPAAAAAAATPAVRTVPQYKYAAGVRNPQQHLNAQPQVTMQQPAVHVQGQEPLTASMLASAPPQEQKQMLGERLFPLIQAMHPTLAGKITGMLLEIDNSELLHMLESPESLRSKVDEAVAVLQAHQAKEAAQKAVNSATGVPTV
# [10] = target: T3, DNA dC->dU-editing enzyme APOBEC-3A; assay: Dose Response confirmation of small molecule APOBEC3A DNA Deaminase Inhibitors via a fluorescence-based single-stranded DNA deaminase assay. [Related pubchem assays (depositor defined):AID493011, AID493024]; format: functional
# [11] = target: T6, Polyadenylate-binding protein 1; assay: PABP poly(A) RNA binding inhibitors, primary screen, biochemical, fluorescence polarization, uHTS (AID 2014)
# [12] = target: T5, DNA dC->dU-editing enzyme APOBEC-3G; assay: APOBEC3G deaminase inhibitors, SAR follow-up, biochemical, fluorescence, single-stranded DNA substrate (AID 602136); format: functional; conditions: read-out: IC50_Mean
# [13] = target: G-protein coupled receptor 55 (Homo sapiens, UniProt Q9Y2T6); assay: GPR55 agonists via beta-arrestin recruitment, primary screen, imaging, U2OS cells, beta-arrestin-GFP redistribution (AID 1961); format: functional
# G-protein coupled receptor 55, sequence (Q9Y2T6 whole entry): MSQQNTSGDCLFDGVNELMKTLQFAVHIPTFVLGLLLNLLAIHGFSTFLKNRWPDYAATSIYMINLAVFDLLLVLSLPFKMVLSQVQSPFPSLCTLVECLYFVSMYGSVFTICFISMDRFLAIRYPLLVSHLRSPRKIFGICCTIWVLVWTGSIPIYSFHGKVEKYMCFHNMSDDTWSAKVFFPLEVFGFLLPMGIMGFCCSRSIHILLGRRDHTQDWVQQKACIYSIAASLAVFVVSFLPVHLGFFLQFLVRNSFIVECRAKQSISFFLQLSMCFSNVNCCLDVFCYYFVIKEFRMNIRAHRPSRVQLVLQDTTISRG
# [14] = target: Voltage-dependent T-type calcium channel subunit alpha-1H (Homo sapiens, UniProt O95180); assay: Cav3.2 T-type channel inhibitors, synthesized analogs, SAR follow-up, cell-based, synthetic library set 2, HEK293 HH8, Fluo-4 (AID 493023); format: functional
# [15] = target: Delta-type opioid receptor (Homo sapiens, UniProt P41143); assay: SAR Analysis of Antagonists of the DOR Receptor using an Image-Based Assay - Set 3. [Related pubchem assays (depositor defined):AID1777, AID1785]; format: functional;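 also: U2OS cells expressing DOR1 and beta-arrestin GFP stimulated with 100 nM SNC80; imaging of GFP-tagged beta-arrestin moving into spots after receptor activation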
# Delta-type opioid receptor, sequence (P41143 whole entry): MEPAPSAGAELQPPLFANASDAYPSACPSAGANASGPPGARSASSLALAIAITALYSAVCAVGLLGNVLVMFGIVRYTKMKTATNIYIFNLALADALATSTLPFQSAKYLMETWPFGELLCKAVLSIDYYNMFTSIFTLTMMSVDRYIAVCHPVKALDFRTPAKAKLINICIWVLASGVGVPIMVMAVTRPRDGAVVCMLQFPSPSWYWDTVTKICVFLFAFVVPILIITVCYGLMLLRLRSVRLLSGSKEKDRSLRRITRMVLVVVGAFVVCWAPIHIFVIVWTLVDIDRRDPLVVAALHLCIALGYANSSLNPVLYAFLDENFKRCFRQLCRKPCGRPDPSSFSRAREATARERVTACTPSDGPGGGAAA
# [16] = target: T7, Kappa-type opioid receptor (Homo sapiens, UniProt P41145); assay: SAR analysis of small molecule antagonists of the kappa opioid receptor via a luminescent beta-arrestin assay - Set 4. [Related pubchem assays (depositor defined):AID1777, AID1778, AID1785, AID1786, AID1966, AID2133, AID2136, AID2285]; format: functional
# T7 sequence (P41145 whole entry): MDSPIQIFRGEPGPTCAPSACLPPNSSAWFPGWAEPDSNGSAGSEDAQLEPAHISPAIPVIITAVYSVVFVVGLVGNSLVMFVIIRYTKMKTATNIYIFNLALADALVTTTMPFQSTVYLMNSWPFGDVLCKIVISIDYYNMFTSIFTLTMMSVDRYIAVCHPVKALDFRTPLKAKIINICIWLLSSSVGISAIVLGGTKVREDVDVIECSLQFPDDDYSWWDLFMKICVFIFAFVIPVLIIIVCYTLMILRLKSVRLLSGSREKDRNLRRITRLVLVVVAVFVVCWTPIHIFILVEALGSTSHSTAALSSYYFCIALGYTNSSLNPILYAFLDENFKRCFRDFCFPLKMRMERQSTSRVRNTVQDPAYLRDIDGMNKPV
# [17] = target: T7, Kappa-type opioid receptor; assay: SAR analysis of Antagonists of the Kappa Opioid Receptor (KOR) using an Image-Based Assay - Set 4. [Related pubchem assays (depositor defined):AID1777, AID1785]; format: functional
# Mu-type opioid receptor = Mu-type opioid receptor (Homo sapiens, UniProt P35372); assay: SAR Analysis of Antagonists of the MOR Receptor using an Image-Based Assay - Set 3. [Related pubchem assays (depositor defined):AID1777, AID1785, AID1786, AID1966, AID2133, AID2136, AID2284, AID2285, AID2420]; format: functional
# Mu-type opioid receptor, sequence (P35372 whole entry): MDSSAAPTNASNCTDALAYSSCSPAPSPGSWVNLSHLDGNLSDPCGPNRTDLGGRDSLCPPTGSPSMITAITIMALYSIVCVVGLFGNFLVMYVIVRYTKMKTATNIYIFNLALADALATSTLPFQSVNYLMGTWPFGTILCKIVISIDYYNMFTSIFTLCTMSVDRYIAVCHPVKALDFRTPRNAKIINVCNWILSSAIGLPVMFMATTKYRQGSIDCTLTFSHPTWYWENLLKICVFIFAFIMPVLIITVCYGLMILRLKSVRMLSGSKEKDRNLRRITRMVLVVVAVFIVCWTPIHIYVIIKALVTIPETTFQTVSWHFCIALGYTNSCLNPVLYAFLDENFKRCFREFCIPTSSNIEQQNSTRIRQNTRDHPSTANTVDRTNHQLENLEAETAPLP
# [18] = target: T8, Tyrosine-protein phosphatase non-receptor type 7 (Homo sapiens, UniProt P35236); assay: HePTP (PTPN7) phosphatase inhibitor potency, SAR follow-up, biochemical, set 2 (AID 449736); format: functional
# T8 sequence (P35236 whole entry): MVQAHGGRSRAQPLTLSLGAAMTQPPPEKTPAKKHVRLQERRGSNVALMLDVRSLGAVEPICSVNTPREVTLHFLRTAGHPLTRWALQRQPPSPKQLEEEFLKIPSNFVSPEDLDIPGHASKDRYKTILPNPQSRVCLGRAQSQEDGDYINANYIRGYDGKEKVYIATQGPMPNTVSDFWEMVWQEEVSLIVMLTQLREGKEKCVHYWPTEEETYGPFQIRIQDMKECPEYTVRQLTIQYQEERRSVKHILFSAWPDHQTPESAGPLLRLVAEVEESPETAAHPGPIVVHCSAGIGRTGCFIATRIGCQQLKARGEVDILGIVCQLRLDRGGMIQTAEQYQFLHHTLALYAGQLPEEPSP
# [19] = target: T9, Tyrosine-protein phosphatase non-receptor type 22 (Homo sapiens, UniProt Q9Y2R2); assay: LYP (PTPN22) phosphatase inhibitor potency, SAR follow-up, biochemical, pCAP fluorogenic substrate, fluorescence, set 3 (AID 449727); format: functional
# T9 sequence (Q9Y2R2 whole entry): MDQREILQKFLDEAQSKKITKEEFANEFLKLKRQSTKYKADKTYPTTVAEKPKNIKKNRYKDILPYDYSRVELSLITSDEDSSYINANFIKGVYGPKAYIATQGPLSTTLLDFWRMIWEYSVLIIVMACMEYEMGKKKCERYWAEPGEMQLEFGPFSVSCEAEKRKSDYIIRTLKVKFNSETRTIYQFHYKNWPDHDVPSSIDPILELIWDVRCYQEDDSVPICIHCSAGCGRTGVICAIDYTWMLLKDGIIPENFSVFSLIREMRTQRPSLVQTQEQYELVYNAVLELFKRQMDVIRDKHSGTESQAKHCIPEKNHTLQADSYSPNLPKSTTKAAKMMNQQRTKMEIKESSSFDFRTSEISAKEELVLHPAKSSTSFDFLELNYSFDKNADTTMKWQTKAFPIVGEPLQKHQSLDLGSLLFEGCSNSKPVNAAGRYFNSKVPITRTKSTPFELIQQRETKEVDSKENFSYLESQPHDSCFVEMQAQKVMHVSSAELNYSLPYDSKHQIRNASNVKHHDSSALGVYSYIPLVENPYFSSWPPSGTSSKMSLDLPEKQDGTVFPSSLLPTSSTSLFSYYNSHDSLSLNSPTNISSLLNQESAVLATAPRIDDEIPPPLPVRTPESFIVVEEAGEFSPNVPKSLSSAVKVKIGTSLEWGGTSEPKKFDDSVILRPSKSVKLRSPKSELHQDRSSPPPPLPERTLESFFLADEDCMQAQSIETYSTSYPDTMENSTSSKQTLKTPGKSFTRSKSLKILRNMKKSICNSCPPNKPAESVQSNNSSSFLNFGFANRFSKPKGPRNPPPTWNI
# [20] = target: T10, Dual specificity protein phosphatase 3 (Homo sapiens, UniProt P51452); assay: SAR VHR1 absorbance Assay for In Vitro dose response studies. [Related pubchem assays (depositor defined):AID1654, AID1661, AID1878, AID1992, AID2004]
# T10 sequence (P51452 whole entry): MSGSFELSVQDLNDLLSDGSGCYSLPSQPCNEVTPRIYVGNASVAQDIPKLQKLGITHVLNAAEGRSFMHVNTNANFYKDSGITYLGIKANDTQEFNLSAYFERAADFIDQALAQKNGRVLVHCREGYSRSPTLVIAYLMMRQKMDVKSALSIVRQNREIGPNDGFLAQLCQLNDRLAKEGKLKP
# [21] = target: T8, Tyrosine-protein phosphatase non-receptor type 7; assay: redox-dependent HePTP inhibition, mechanism study, biochemical, fluorescence (AID 2068); format: functional
# [22] = target: T10, Dual specificity protein phosphatase 3; assay: SAR VHR1 Fluorescent Assay for In Vitro dose response studies. [Related pubchem assays (depositor defined):AID1654, AID1661, AID1878, AID1992, AID2004, AID2070, AID2085]; format: functional
# [23] = target: T11, Dual specificity protein phosphatase 6 (Rattus norvegicus, UniProt Q64346); format: functional;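 also: confirmatory in vitro dose-response testing of MKP-3 inhibition; recombinant His-tagged MKP-3 made in E. coli BL21 with OMFP substrate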
# T11 sequence (Q64346 whole entry): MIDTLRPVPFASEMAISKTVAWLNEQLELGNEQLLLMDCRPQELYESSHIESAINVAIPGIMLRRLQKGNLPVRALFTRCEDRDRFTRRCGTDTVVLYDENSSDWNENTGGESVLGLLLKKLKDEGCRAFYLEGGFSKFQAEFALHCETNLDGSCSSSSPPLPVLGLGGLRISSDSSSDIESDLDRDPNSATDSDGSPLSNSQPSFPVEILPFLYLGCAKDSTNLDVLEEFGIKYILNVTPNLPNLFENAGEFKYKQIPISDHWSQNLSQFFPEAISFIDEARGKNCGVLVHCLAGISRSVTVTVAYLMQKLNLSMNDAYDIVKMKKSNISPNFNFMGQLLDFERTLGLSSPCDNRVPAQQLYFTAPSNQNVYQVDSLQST
# [24] = target: Tyrosine-protein phosphatase non-receptor type 12 (Homo sapiens, UniProt Q05209); assay: SAR Selectivity Analysis of small molecule inhibitors of PEST using pCAP in a fluorescence assay. [Related pubchem assays (depositor defined):AID1779, AID1784, AID2135]; format: functional
# Tyrosine-protein phosphatase non-receptor type 12, sequence (Q05209 whole entry): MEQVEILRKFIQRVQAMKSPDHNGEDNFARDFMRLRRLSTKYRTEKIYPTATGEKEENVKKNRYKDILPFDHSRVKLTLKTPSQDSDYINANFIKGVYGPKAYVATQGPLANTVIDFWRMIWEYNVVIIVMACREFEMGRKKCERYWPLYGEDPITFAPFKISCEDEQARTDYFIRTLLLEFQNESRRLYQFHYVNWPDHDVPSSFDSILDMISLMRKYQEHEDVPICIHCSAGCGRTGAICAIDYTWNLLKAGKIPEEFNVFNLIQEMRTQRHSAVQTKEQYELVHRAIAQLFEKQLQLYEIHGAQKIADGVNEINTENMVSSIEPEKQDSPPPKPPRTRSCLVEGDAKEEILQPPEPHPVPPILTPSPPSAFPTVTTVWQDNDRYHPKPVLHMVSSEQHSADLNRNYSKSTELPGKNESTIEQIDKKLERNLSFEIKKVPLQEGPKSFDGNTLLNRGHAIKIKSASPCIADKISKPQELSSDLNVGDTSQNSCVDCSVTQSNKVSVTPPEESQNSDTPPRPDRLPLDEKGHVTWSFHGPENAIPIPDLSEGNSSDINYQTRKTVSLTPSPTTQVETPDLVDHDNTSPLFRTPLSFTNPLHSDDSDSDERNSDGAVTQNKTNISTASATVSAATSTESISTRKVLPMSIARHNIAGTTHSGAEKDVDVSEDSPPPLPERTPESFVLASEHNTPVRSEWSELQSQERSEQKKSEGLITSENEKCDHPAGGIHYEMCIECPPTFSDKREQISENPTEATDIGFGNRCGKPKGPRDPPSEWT
# [25] = target: T9, Tyrosine-protein phosphatase non-receptor type 22; assay: SAR LYP1 Fluorescent Assay using OMFP substrate for In Vitro dose response studies - Set 3. [Related pubchem assays (depositor defined):AID1779, AID1784, AID2140, AID2686]; format: functional
# [26] = target: T7, Kappa-type opioid receptor; assay: SAR analysis of Antagonists of the Kappa Opioid Receptor (KOR) using an Image-Based Assay - Set 3. [Related pubchem assays (depositor defined):AID1777, AID1785]; format: functional
# [27] = target: T7, Kappa-type opioid receptor; assay: SAR analysis of small molecule antagonists of the kappa opioid receptor via a luminescent beta-arrestin assay - Set 3. [Related pubchem assays (depositor defined):AID1777, AID1778, AID1785, AID1786, AID1966, AID2133, AID2136, AID2285, AID2495]; format: functional
smiles,measurement,setting,value
NC(=O)c1ccc(Cn2c(C(=O)c3cc(Cl)c(N)c(Cl)c3)c3ccccc3[n+]2[O-])cc1,IC50,[1],> 20 µM (inactive)
same,IC50,Bcl-2-related protein A1,> 20 µM (inactive)
same,IC50,[2],10.8 µM (active)
CCCCC(=O)NNC=C1C(=O)N(CC)C(=S)N(CC)C1=O,IC50,Beta-galactosidase,> 66.6 µM (inactive)
CCOC(=O)c1ccc2c(c1)N(C)C(=O)c1ccccc1S2,IC50,[3],12.9 µM (inactive)
same,IC50,[4],> 100 µM (inactive)
same,IC50,[5],11.7 µM (active)
same,IC50,[6],> 99 µM (inactive)
same,IC50,[7],16.6 µM (inactive)
same,IC50,[8],> 100 µM (inactive)
same,IC50,[9],22.2 µM (active)
same,IC50,[10],1.55 µM (active)
same,IC50,[11],8.14 µM (active)
same,IC50,[12],8.67 µM (active)
COc1cc(/C=C2\C(=O)ON=C2c2ccccc2)cc(Cl)c1O,EC50,[13],> 32 µM (inactive)
O=C(COc1ccccc1Cl)N[C@@H]1CCCN(Cc2ccccc2)C1,EC50,[14],10 µM (active)
CC(C)c1ccc(S(=O)(=O)NCc2ccc(C(=O)NCCN(Cc3ccccc3)C(C)C)cc2)cc1,IC50,[15],> 32 µM (inactive)
same,IC50,[16],1.57 µM (active)
same,IC50,[17],0.531 µM (active)
same,IC50,Mu-type opioid receptor,0.66 µM (active)
Cc1cc(OCC(=O)O)ccc1[S+](C)[O-] (configuration not stated),IC50,[18],> 100 µM (inactive)
same,IC50,[19],> 100 µM (inactive)
same,IC50,[20],> 100 µM (inactive)
same,IC50,[21],> 100 µM (inactive)
same,IC50,[22],> 99 µM (inactive)
same,IC50,[23],> 99 µM (inactive)
same,IC50,[24],> 100 µM (inactive)
same,IC50,[25],> 100 µM (inactive)
O=C(Cn1c(=O)c2cccn2c2cccnc21)NCCCN1CCN(Cc2ccccc2)CC1,IC50,[26],11 µM (inactive)
same,IC50,[15],> 32 µM (inactive)
same,IC50,Mu-type opioid receptor,> 32 µM (inactive)
same,IC50,[27],> 20 µM (inactive)
